Test results as given in patent publication US4946964A, “Photographic compounds” (Polaroid Corporation, priority 1987, dated 1990).

Key:
[1] = release kinetics: t1/2 for cleavage with release of the PHOTO moiety in alkaline solution; assay type: physicochemical; settings: 1×10^-4 molar, 30% acetonitrile/0.25N aqueous potassium hydroxide, 22°+0.1° C., 100 µM
Description: The rate of release of the PHOTO moiety is dependent upon a number of factors. […] The release rate is also dependent upon the hydroxyl ion concentration of the alkaline medium. […] The rate of release is also temperature dependent, that is, the rate increases as the temperature at which processing of the film unit is effected increases. Thus, where PHOTO is a photographic reagent residue for example, the compounds which are utilized according to the invention can provide more uniform sensitometry for the film units of the invention over a wide temperature range of processing. In other words, the sensitometry of such film units can be less temperature dependent than would otherwise be the case.
The release kinetics of the compounds of the invention vary over a wide range. The t1/2 times in solution, i.e., the time required for one-half of the material to undergo cleavage with release of the PHOTO moiety, for some of the compounds illustrated above are shown in Table I. The values were obtained using 1×10^-4 molar concentrations in 30% acetonitrile/0.25N aqueous potassium hydroxide solution at a temperature of 22°+0.1° C.

[2] = Arrhenius activation energy (Ea) of release of the PHOTO moiety; assay type: physicochemical; settings: log of observed rate constant vs 1/T (° K.)
Procedure: The rate at which the release reaction increases with temperature is a function of the activation energy. For example, for an increase in temperature from 20° C. to 30° C., it hs been calculated that the reaction rate will increase by a factor of 2 when Ea is 12.2, by a factor of about 3 when Ea is 19.3, by a factor of about 4 when Ea is 24.4 and by a factor of about 5 when Ea is 28.3. […] Typically, for such release reactions with other compounds, when the room temperature release rate is relatively fast, the activation energy tends to be about 10. Accordingly, it is possible to select, according to the invention, for a particular photographic system a compound which has a desired release rate at room temperature, a much slower release rate at lower temperatures and a much higher release rate at higher temperatures.
The Arrhenius activation energy (Ea) was calculated by plotting the log of the observed rate constant vs 1/T (° K.) for each compound.

Structure (SMILES)	t1/2 [1]	t1/2 ([1]; syn isomer)	Arrhenius activation energy (Ea) [2]
ON=CCSc1nnnn1-c1ccccc1 [VIII]	49.1 s	1020.0 s	–
CC(CSc1nnnn1-c1ccc(O)cc1)=NO [V]	40.5 s	–	–
NC(CSc1nnnn1-c1ccccc1)=NO [XIII]	546.0 s	–	–
ON=C(CSc1nnnn1-c1ccccc1)CSc1nnnn1-c1ccccc1 [III]	8.9 s	–	–
CC(CSc1nnnn1-c1ccc(C(C)=NO)cc1)=NO [VI]	28.9 s	–	–
ON=C(CSc1nnnn1-c1ccc(O)cc1)CSc1nnnn1-c1ccc(O)cc1 [Compound I]	51.1 s	–	21.8 kcal/mol

Now from value to compound, other results behind:

t1/2 [1]	t1/2 ([1]; syn isomer)	Structure (SMILES)	Arrhenius activation energy (Ea) [2]
22.5 s	–	CC(CSc1nnnn1-c1ccccc1)=NO [IX]	26.5 kcal/mol
4.3 s	–	COc1ccc(C(CSc2nnnn2-c2ccccc2)=NO)cc1 [X]	21.9 kcal/mol
165.0 s	–	Cc1ccc(S(=O)(=O)NN=C(CSc2nnnn2-c2ccccc2)c2ccccc2)cc1 [XII]	–
7.6 s	–	CS(=O)(=O)Nc1ccc(C(CSc2nnnn2-c2ccccc2)=NO)cc1 [XI]	–
4 to 6 s	–	ON=C(CSc1nnnn1-c1ccccc1)c1ccccc1 [VII]	–
